Data from US8242113B2, “Oxazolidinone derivatives with cyclic amidoxime or cyclic amidrazone pharmaceutical compositions thereof” (Legochem Biosciences, Inc., priority 2008, dated 2012).
≈ marks a conversion by molar mass, not a printed value. Read-outs that look alike come from different tables or passages of the source.

Tests used:
[1] = system: methicillin-resistant Staphylococcus aureus (MRSA); assay: In vitro antibacterial activity, broth microdilution (MIC90); conditions: read-out: Antibacterial activity MIC90, MRSA
From the text: (§4) MIC90 measurement was made according to the broth microdilution method based on the CLSI document [Clinical and Laboratory Standards Institute Document.
(§5) The test compounds in DMSO solution were further diluted 20-fold with sterile distilled water.

[2] = Cytotoxicity measurement by MTT assay; type: cell-based; conditions: Chinese hamster
From the text: The MTT assay is a […], colorimetric assay for mammalian cell survival and cell proliferation. It depends on the reduction of tetrazolium salt MTT by the mito-chondrial succinate dehrogenase of viable cells to form a blue formazan product. The assay measures cell respiration, and the amount of formazan product to the number of living cells present in culture. In this test, Chinese hamster ovary cells (CHO-K1) were purchased from ATCC (USA). Subcultured CHO cells were detached from the culture flask by treating with trypsin-EDTA solution, and seeded on a 96-well microplate, with 5000 cells per each well. After culturing for 24 hours in a 37° C., 5% CO2 incubator, the cells were treated with the oxazolidinone derivatives according to the present invention synthesized in the above examples, at 7 different concentrations. After further culturing for 48 hours in a 37° C., 5% CO2 incubator, 15 uL of […] MTT solution was added to each well. The cells were further incubated in the 37° C., 5% CO2 incubator for about 2 hours. Then, the culture medium was discarded and 100 uL of DMSO solution was added to each well. After agitating the microplate for 30 minutes, absorbance was measured at 550 nm using Spectramax plus 190 plate reader (Molecular Devices, USA). The absorbance decrease of the compound-treated groups compared to the non-treated control group is an indication of the decrease of surviving cells, which enables the measurement of the cytotoxicity of the compounds. The CC50 value, i.e., the concentration at which the cell proliferation is reduced to 50%, of the compounds according to the present invention was computed using the GraFit statistical analysis program (version 5.0.12) purchased from Erithacus Software after calculating the percentages of the absorbance at various concentrations as compared to the control group.

[3] = molecular target: T1, monoamine oxidase B (MAO B) (Homo sapiens, UniProt P27338); assay: MAO inhibition (MAO-GLO assay); type: biochemical; conditions: MAO-GLO kit, compounds at 3.9-500 uM; read-out: MAOB
T1 construct: purchased Sigma-Aldrich (USA)
T1 sequence (P27338 1-520): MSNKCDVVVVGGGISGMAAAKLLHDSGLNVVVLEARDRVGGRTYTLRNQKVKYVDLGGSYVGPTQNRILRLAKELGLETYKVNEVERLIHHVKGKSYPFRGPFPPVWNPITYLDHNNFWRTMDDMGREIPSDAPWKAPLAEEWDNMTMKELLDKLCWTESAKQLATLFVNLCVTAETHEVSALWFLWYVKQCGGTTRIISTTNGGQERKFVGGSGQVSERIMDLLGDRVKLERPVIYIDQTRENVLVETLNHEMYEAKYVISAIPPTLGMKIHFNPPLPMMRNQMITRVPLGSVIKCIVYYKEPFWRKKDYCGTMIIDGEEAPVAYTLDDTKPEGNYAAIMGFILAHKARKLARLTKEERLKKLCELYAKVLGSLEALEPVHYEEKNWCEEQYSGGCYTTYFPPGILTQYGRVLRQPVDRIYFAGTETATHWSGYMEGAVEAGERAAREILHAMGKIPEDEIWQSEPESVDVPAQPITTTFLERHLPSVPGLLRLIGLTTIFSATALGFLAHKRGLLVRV
Procedure: (§1) The oxazolidinone derivatives according to the present invention synthesized in the examples were tested for inhibition of monoamine oxidase A (MAO A) and monoamine oxidase B (MAO B). MAO-GLO assay kit was purchased from Promega (USA) and MAO A and MAO B enzymes were purchased from Sigma-Aldrich (USA). From the aldehyde product resulting from the action of the MAO enzyme on the amine group of the substrate, luciferin methyl ester is produced. The luciferin detection reagent is then added to inactivate the MAO enzymes. The esterase and the luciferase included in the reagent oxidize luciferin, thereby emitting light. The light emission is detected to measure the activity of MAO. The light emission was detected using LEADseeker (Amershan Bioscience, Sweden). MAO activity was measured in the presence of the compounds according to the present invention at 3.9-500 uM and compared with the non-treated control group. Linezolid was used as a comparison compound. For the measurement of the MAO inhibition activity of the compounds represented by Chemical Formula 1, the IC50 value, i.e., the concentration of the compounds at which the enzymatic activity is inhibited by 50% (This value is related with the inhibition constant Ki), can be determined. The concentration of the inhibitor at which the rate of hydrolysis of the substrate is reduced to 50% (i.e., the IC50 value) can be determined from a log plot of the relative rate of hydrolysis (as compared to the non-inhibited control group) versus the concentration of the compounds of Chemical Formula 1.
(§2) The MAO inhibition effect of the compounds of Chemical Formula 1 was measured by determining the inhibition constant Ki. Ki=IC50/{1+(┌S┐/Km)} Equation 1
(§3) In Equation 1, Km is the Michaelis-Menten constant, i.e., the concentration of the substrate at which the rate of enzymatic reaction is half of the maximum, and IC50 is the concentration of the inhibitor at which the rate of the hydrolysis of the substrate is reduced by 50%. The IC50 value was measured by plotting a log plot of the relative rate of hydrolysis (as compared to the non-inhibited control group) versus the concentration of the compounds of Chemical Formula 1. GraFit statistical analysis program (version 5.0.12) purchased from Erithacus Software was used.

[4] = molecular target: T2, monoamine oxidase A (MAO A) (Homo sapiens, UniProt P21397); assay: MAO inhibition (MAO-GLO assay); type: biochemical; conditions: MAO-GLO kit, compounds at 3.9-500 uM; read-out: MAOA
T2 construct: purchased Sigma-Aldrich (USA)
T2 sequence (P21397 1-527): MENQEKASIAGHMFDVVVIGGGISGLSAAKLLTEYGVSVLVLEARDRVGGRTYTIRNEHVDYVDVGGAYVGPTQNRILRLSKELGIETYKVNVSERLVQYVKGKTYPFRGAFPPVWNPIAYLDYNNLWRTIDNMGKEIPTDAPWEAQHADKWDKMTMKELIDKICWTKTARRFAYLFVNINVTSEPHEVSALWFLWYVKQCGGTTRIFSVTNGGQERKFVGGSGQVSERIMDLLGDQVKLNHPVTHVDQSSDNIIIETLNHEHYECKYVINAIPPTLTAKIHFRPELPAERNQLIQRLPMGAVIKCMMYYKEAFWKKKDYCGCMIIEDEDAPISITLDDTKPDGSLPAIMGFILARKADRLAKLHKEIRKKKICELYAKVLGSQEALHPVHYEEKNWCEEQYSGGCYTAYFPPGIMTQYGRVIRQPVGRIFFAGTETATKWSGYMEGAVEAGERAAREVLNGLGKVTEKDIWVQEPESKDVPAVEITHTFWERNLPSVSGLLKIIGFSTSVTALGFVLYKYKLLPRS
Procedure: as §1, §2, §3

[5] = system: linezolid- and vancomycin-resistant Enterococcus faecalis (LVRE); assay: In vitro antibacterial activity, broth microdilution (MIC90); conditions: read-out: Antibacterial activity MIC90, LVRE
From the text: as §4, §5

[6] = Measurement of solubility in water by 1H NMR; type: physicochemical; conditions: for solubility at 30 min: water, thermodynamic from solid
Procedure: Water solubilities of methanesulfonates (MSA) of representative compounds among the oxazolidinone derivatives of Chemical Formula 1 were measured.
Solubility measurement was done by ^1H NMR according to the following method. First, a methanesulfonate (100 mg) of the compound was added to D2O (0.5 mL). After preparing a saturated solution by vigorous shaking for 30 minutes, the solution was filtered and 0.3 mL is taken therefrom. A reference compound solution (0.3 mL) (In this test example, DMSO diluted with D2O was used.) with an exactly known concentration was added thereto. From the ^1H NMR spectrum of the solution, the integral ratio of the sample peak to the reference (DMSO) peak was calculated. Since the concentration of the reference solution is known, the mols of the sample can be calculated from the integral ratio. Then, the solubility of the sample was calculated.

SMILES	MIC90 [1] [µg/mL]	CC50 at 48 h [2] [µM]	IC50 [3] [µM]	IC50 [4] [µM]	MIC [5] [µg/mL]	solubility at 30 min [6] [mg/mL]	% solubility in water ([6]; methanesulfonate (MSA) of the compound, saturated solution in D2O, linezolid as reference)	solubility at 30 min ([6]; read-out: Solubility of methanesulfonate in water) [mg/mL]	CC50 at 48 h ([2]; CHO-K1 cells, 48 hours treatment, MTT, read-out: CC50) [µM]
COC(=S)NC[C@H]1CN(c2ccc(N3C=NN(C=O)CC3)c(F)c2)C(=O)O1 [Compound 53]	0.5 (≈ 1.26 µM)	> 130	58	24	8 (≈ 20.2 µM)				
CN1CCN(c2ccc(N3C[C@H](Cn4ccnn4)OC3=O)cc2F)C=N1 [Compound 83]	1 (≈ 2.78 µM)	> 130	207	19	16 (≈ 44.5 µM)	117 (≈ 326000 µM)			
CN1CCN(c2ccc(N3C[C@H](CNc4ccon4)OC3=O)cc2F)C=N1 [Compound 89]	0.5 (≈ 1.34 µM)		> 250	5.2	8 (≈ 21.4 µM)		(13%)	129 (≈ 345000 µM)	> 130
CN1CCN(c2ccc(N3C[C@H](CO)OC3=O)cc2F)C=N1 [Compound 94]	1 (≈ 3.24 µM)	> 130	176	4	64 (≈ 208 µM)	136 (≈ 441000 µM)			
